According to PubChem BioAssay AID328 (DTP/NCI, 2004):
“And” between values parts separate entries of the source, which are not always exact repeats. Equal values may be shown once. Toxic doses and inconclusive results are not listed. The calls were made as follows: active = survival T/C of 150% or more; inactive = T/C below 125% in these data.

Test system: BDF1 mice, P388 leukemia ip, median survival T/C
Assay: NCI In Vivo Anticancer Drug Screen. Data for tumor model P388 Leukemia (intraperitoneal) in B6D2F1 (BDF1) mice
Conditions: endpoint: median survival time, higher = longer survival
Summary of the method: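 Vehicle-dosed animals serve as the reference; survival of compound-dosed, tumour-implanted mice is divided by it.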

[1] = dose: 100.0 mg/kg/injection, schedule: Q04DX003 (ip), vehicle: saline with Tween-80
[2] = dose: 200.0 mg/kg/injection, schedule: Q04DX003 (ip), vehicle: saline with Tween-80
[3] = dose: 400.0 mg/kg/injection, schedule: Q04DX003 (ip), vehicle: saline with Tween-80
[4] = dose: 12.5 mg/kg/injection, schedule: Q01DX009 (ip), vehicle: saline
[5] = dose: 100.0 mg/kg/injection, schedule: Q01DX009 (ip), vehicle: Klucel (hydroxypropylcellulose) (HPC)
[6] = dose: 50.0 mg/kg/injection, schedule: Q04DX003 (ip), vehicle: saline with Tween-80

Measured: T/C

O=Cc1ccc(OC(=O)Nc2ccccc2)cc1
inactive: [1] 113 % of control | [2] 122 % of control | [3] 86 % of control

CC1CCCCN1O (stereo unspecified)
inactive: dose: 100.0 mg/kg/injection, schedule: Q04DX002 (ip), vehicle: saline with Tween-80 100 % of control | dose: 200.0 mg/kg/injection, schedule: Q04DX002 (ip), vehicle: saline with Tween-80 105 % of control | dose: 400.0 mg/kg/injection, schedule: Q04DX002 (ip), vehicle: saline with Tween-80 96 % of control

C1CC[N-]CC1.C1CC[N-]CC1.CS(C)=O.[Cl][Rh]([Cl])[Cl]
active: dose: 8.3 mg/kg/injection, schedule: Q01DX009 (ip), vehicle: saline 150 % of control | [4] 150 % of control and 155 % of control | dose: 18.7 mg/kg/injection, schedule: Q01DX009 (ip), vehicle: saline 150 % of control

OC(COC(c1ccccc1)(c1ccccc1)c1ccccc1)C(O)CC1SCCS1 (stereo unspecified)
inactive: dose: 100.0 mg/kg/injection, schedule: Q01DX009 (ip), vehicle: saline sonified 100 % of control | dose: 100.0 mg/kg/injection, schedule: Q04DX003 (ip), vehicle: saline sonified 112 % of control | dose: 200.0 mg/kg/injection, schedule: Q01DX009 (ip), vehicle: saline sonified 110 % of control | dose: 200.0 mg/kg/injection, schedule: Q04DX003 (ip), vehicle: saline sonified 100 % of control | dose: 400.0 mg/kg/injection, schedule: Q01DX009 (ip), vehicle: saline sonified 95 % of control | dose: 400.0 mg/kg/injection, schedule: Q04DX003 (ip), vehicle: saline sonified 108 % of control

NC(=S)N/N=C/c1ccccn1
inactive: dose: 1.0 mg/kg/injection, schedule: Q01DX010 (ip), vehicle: carboxymethylcellulose (CMC) 110 % of control | dose: 2.0 mg/kg/injection, schedule: Q01DX010 (ip), vehicle: carboxymethylcellulose (CMC) 110 % of control | dose: 30.0 mg/kg/injection, schedule: Q01DX010 (ip), vehicle: saline 112 % of control

CCC[N+](CCC)(CCC)CCC.N#CN=C([SH2+])[SH2+].N#CN=C([SH2+])[SH2+].[Pt+2]
inactive: dose: 50.0 mg/kg/injection, schedule: Q04DX003 (ip), vehicle: saline 100 % of control

COc1cc2c(cc1O)C(=O)CCCC2
inactive: dose: 25.0 mg/kg/injection, schedule: Q01DX009 (ip), vehicle: saline with Tween-80 97 % of control | dose: 50.0 mg/kg/injection, schedule: Q01DX009 (ip), vehicle: saline with Tween-80 101 % of control and 120 % of control | [5] 103 % of control | dose: 100.0 mg/kg/injection, schedule: Q01DX009 (ip), vehicle: saline with Tween-80 97 % of control | [1] 100 % of control | dose: 200.0 mg/kg/injection, schedule: Q01DX009 (ip), vehicle: Klucel (hydroxypropylcellulose) (HPC) 103 % of control | [2] 104 % of control | dose: 400.0 mg/kg/injection, schedule: Q01DX009 (ip), vehicle: Klucel (hydroxypropylcellulose) (HPC) 103 % of control | [3] 95 % of control

CS(=O)(=O)ON1C(=O)c2ccccc2C1=O
inactive: dose: 100.0 mg/kg/injection, schedule: Q04DX003 (ip), vehicle: saline 120 % of control

Nc1ncc(Cl)c2ccccc12
inactive: dose: 25.0 mg/kg/injection, schedule: Q01DX005 (ip), vehicle: saline with Tween-80 89 % of control

CCCCCCCCCCCCCCCC(=O)Oc1ccc(/C(CC)=C(/CC)c2ccc(OC(=O)CCCCCCCCCCCCCCC)cc2)cc1
inactive: [1] 90 % of control | [2] 89 % of control | [3] 89 % of control

O=S1(=O)CC(Cl)C(Cl)C1 (stereo unspecified)
inactive: dose: 3.12 mg/kg/injection, schedule: Q01DX009 (ip), vehicle: saline 90 % of control and 95 % of control | dose: 4.5 mg/kg/injection, schedule: Q04DX003 (ip), vehicle: saline 118 % of control | dose: 6.25 mg/kg/injection, schedule: Q01DX009 (ip), vehicle: saline 90 % of control | dose: 9.0 mg/kg/injection, schedule: Q04DX003 (ip), vehicle: saline 104 % of control | [4] 95 % of control | dose: 18.0 mg/kg/injection, schedule: Q04DX003 (ip), vehicle: saline 113 % of control | dose: 26.0 mg/kg/injection, schedule: Q04DX003 (ip), vehicle: saline 91 % of control

CCC(CC)OC(=O)c1cccc(C)c1
inactive: [6] 104 % of control | [1] 108 % of control | [2] 101 % of control

N/N=C1/CCN2CCCc3cccc1c32
inactive: [6] 100 % of control | [1] 110 % of control

CN(C)CC/C=C1\c2ccccc2Sc2ccc(Cl)cc21
inactive: dose: 3.75 mg/kg/injection, schedule: Q01DX001 (ip), vehicle: Klucel (hydroxypropylcellulose) (HPC) 112 % of control | dose: 7.5 mg/kg/injection, schedule: Q01DX001 (ip), vehicle: Klucel (hydroxypropylcellulose) (HPC) 110 % of control | dose: 15.0 mg/kg/injection, schedule: Q01DX001 (ip), vehicle: Klucel (hydroxypropylcellulose) (HPC) 112 % of control | dose: 30.0 mg/kg/injection, schedule: Q01DX001 (ip), vehicle: Klucel (hydroxypropylcellulose) (HPC) 103 % of control | dose: 60.0 mg/kg/injection, schedule: Q01DX001 (ip), vehicle: Klucel (hydroxypropylcellulose) (HPC) 114 % of control | dose: 120.0 mg/kg/injection, schedule: Q01DX001 (ip), vehicle: Klucel (hydroxypropylcellulose) (HPC) 118 % of control

Cc1n[nH]c(C)c1Br
inactive: dose: 75.0 mg/kg/injection, schedule: Q01DX009 (ip), vehicle: saline with Tween-80 95 % of control | dose: 150.0 mg/kg/injection, schedule: Q01DX009 (ip), vehicle: saline with Tween-80 98 % of control | dose: 300.0 mg/kg/injection, schedule: Q01DX009 (ip), vehicle: saline with Tween-80 95 % of control

C1CC[N-]CC1.C1CC[N-]CC1.C1CC[N-]CC1.[Cl][Cr]([Cl])[Cl]
inactive: dose: 50.0 mg/kg/injection, schedule: Q01DX009 (ip), vehicle: Klucel (hydroxypropylcellulose) (HPC) 90 % of control | [5] 100 % of control

COc1cc2cnc3c4cc5c(cc4ccc3c2cc1OC)OCO5
inactive: dose: 20.0 mg/kg/injection, schedule: Q01DX009 (ip), vehicle: saline with Tween-80 95 % of control | dose: 40.0 mg/kg/injection, schedule: Q01DX009 (ip), vehicle: saline with Tween-80 105 % of control | dose: 80.0 mg/kg/injection, schedule: Q01DX009 (ip), vehicle: saline with Tween-80 105 % of control | dose: 120.0 mg/kg/injection, schedule: Q01DX009 (ip), vehicle: saline with Tween-80 95 % of control | dose: 240.0 mg/kg/injection, schedule: Q01DX009 (ip), vehicle: saline with Tween-80 110 % of control
